Structures are written as SMILES. Read-outs that look alike come from different tables or passages of the source.

Experiment [1] deals with fungi. Briefly: fungicidal activity (general statement, no test described). The settings on record: enantiomer Ib compared with enantiomer Ia / racemate.
Experiment [2] has as its system fungi. The settings on record: racemic compound, described in WO 2010/063700; cited from earlier work.

Regarding `CON(C(=O)c1cn(C)nc1C(F)F)[C@@H](C)Cc1c(Cl)cc(Cl)cc1Cl` [Ib, 3-(difluoromethyl)-N-methoxy-1-methyl-N-[(1S)-1-methyl-2-(2,4,6-trichlorophenyl)ethyl]pyrazole-4-carboxamide], in the experiment with fungi [1], the fungicidal activity result was “more prominent fungicidal activity”.

With `CON(C(=O)c1cn(C)nc1C(F)F)C(C)Cc1c(Cl)cc(Cl)cc1Cl` (racemic) [3-(difluoromethyl)-N-methoxy-1-methyl-N-[1-methyl-2-(2,4,6-trichlorophenyl)ethyl]pyrazole-4-carboxamide], the fungicidal activity entry in the experiment with fungi [2] is on record as “excellent fungicidal activity”.
